Where two headings read alike, the source gives them in different places.
Legend:
CA-I/72 T. cruzi = test: Phenotypic high-content imaging assay, intracellular T. cruzi amastigotes in C2C12 host cells; assay type: cell-based, Trypanosoma cruzi; conditions: for Selectivity Index (SI): SI = CC50 (C2C12) / EC50 (T. cruzi CA-I/72); for EC50: Trypanosoma cruzi, read-out: EC50 CA-I/72 T. cruzi
Experimental: C2C12 mouse myoblasts (ATCC CRL-1772) and CA-I/72 T. cruzi (kindly donated by J. Dvorak, NIH) were cultured in Dulbecco’s Modified Eagle Medium (Invitrogen, Carlsbad, CA, USA), supplemented with 5% fetal bovine serum (Sigma Aldrich, St. Louis, MO, USA) and 1% penicillin-streptomycin (Invitrogen, Carlsbad, CA, USA) at 37 °C and 5% CO2 essentially as described [11]. Passaging of CA-I/72 T. cruzi was conducted weekly via co-culture with C2C12 host cells.
Compounds from the ReFRAME library, benznidazole (Sigma Alderich, St. Louis, MO, USA) and DMSO (Sigma Alderich, St. Louis, MO, USA), were transferred to black 1536-well plates (Greiner Bio One, Kremsmünster, Austria) with clear bottoms using an Acoustic Transfer System (ATS) instrument (EDC Biosystems, Fremont, CA, USA). C2C12 cells were seeded at a density of 100 cells per well, and CA-I/72 T. cruzi parasites were seeded at a density of 1500 cells per well, using a Multidrop Combi liquid handler (Thermo Scientific, Waltham, MA, USA). Plates were incubated at 37 °C and 5% CO2 for 72 h in humidified trays to reduce edge effect. Following this incubation, paraformaldehyde (4% final concentration) in 1× phosphate buffered saline (PBS, Invitrogen, 10010023) was used to fix the cells for 1 h. The cells were then subsequently treated with 5 µg/mL DAPI staining solution (Sigma Aldrich, D9542) for 1 h. Next, the plates were imaged using an ImageXpress Micro XLS automated high-content imager (Molecular Devices, San Jose, CA, USA), using the 10× fluorescence objective. Images were analyzed automatically using a custom image analysis module [9, 11].
Compounds from the ReFRAME library were pre-spotted on 1536 clear-bottom black well plates in 100% dimethylsulfoxide (DMSO) for a final concentration of 10 µM in 10 µL final volume (and 0.1% DMSO final concentration). C2C12 mouse myoblasts and CA-I/72 strain T. cruzi trypomastigotes were added to the plate in a 1:15 infection ratio and incubated for 72 h at 37 °C and 5% CO2. Cells were then fixed with 4% paraformaldehyde (final concentration), and stained with 5 µg/mL of 4’,6-diamidino-2-phenylindole (DAPI) to highlight the nuclei from the host cells and parasites. Using an ImageXpress Micro XLS automated microscope (10× magnification setting), fluorescence images of C2C12 and T. cruzi amastigote nuclei were acquired for each well, and the number of host cell nuclei and amastigote nuclei were automatically determined using a custom image analysis module as previously described [9, 10, 11] […] Parasite amastigote nuclei were selectively counted over trypomastigote nuclei, via distance gating of parasitic nuclei distance from host cell nuclei in the microscopy images.

[1] = Host cell toxicity by nuclei counting in the phenotypic high-content imaging assay; conditions: mouse
Experimental: C2C12 mouse myoblasts (ATCC CRL-1772) and CA-I/72 T. cruzi (kindly donated by J. Dvorak, NIH) were cultured in Dulbecco’s Modified Eagle Medium (Invitrogen, Carlsbad, CA, USA), supplemented with 5% fetal bovine serum (Sigma Aldrich, St. Louis, MO, USA) and 1% penicillin-streptomycin (Invitrogen, Carlsbad, CA, USA) at 37 °C and 5% CO2 essentially as described. Passaging of CA-I/72 T. cruzi was conducted weekly via co-culture with C2C12 host cells.
Compounds from the ReFRAME library, benznidazole (Sigma Alderich, St. Louis, MO, USA) and DMSO (Sigma Alderich, St. Louis, MO, USA), were transferred to black 1536-well plates (Greiner Bio One, Kremsmünster, Austria) with clear bottoms using an Acoustic Transfer System (ATS) instrument (EDC Biosystems, Fremont, CA, USA). C2C12 cells were seeded at a density of 100 cells per well, and CA-I/72 T. cruzi parasites were seeded at a density of 1500 cells per well, using a Multidrop Combi liquid handler (Thermo Scientific, Waltham, MA, USA). Plates were incubated at 37 °C and 5% CO2 for 72 h in humidified trays to reduce edge effect. Following this incubation, paraformaldehyde (4% final concentration) in 1× phosphate buffered saline (PBS, Invitrogen, 10010023) was used to fix the cells for 1 h. The cells were then subsequently treated with 5 µg/mL DAPI staining solution (Sigma Aldrich, D9542) for 1 h. Next, the plates were imaged using an ImageXpress Micro XLS automated high-content imager (Molecular Devices, San Jose, CA, USA), using the 10× fluorescence objective. Images were analyzed automatically using a custom image analysis module.
Compounds from the ReFRAME library were pre-spotted on 1536 clear-bottom black well plates in 100% dimethylsulfoxide (DMSO) for a final concentration of 10 µM in 10 µL final volume (and 0.1% DMSO final concentration). C2C12 mouse myoblasts and CA-I/72 strain T. cruzi trypomastigotes were added to the plate in a 1:15 infection ratio and incubated for 72 h at 37 °C and 5% CO2. Cells were then fixed with 4% paraformaldehyde (final concentration), and stained with 5 µg/mL of 4’,6-diamidino-2-phenylindole (DAPI) to highlight the nuclei from the host cells and parasites. Using an ImageXpress Micro XLS automated microscope (10× magnification setting), fluorescence images of C2C12 and T. cruzi amastigote nuclei were acquired for each well, and the number of host cell nuclei and amastigote nuclei were automatically determined using a custom image analysis module as previously described (Figure 1). Parasite amastigote nuclei were selectively counted over trypomastigote nuclei, via distance gating of parasitic nuclei distance from host cell nuclei in the microscopy images.
Infection levels were calculated as a ratio of the number of T. cruzi amastigotes per C2C12 host cell, as determined by nuclei counting. Compound toxicity was determined by dividing the number of host cell nuclei in a drug-treated well by the average of the vehicle controls. For both infection ratios and cell viability ratios, values were normalized to the vehicle controls to determine percent activity and toxicity, respectively. Control wells containing uninfected C2C12 cells, infected C2C12 cells with 0.1% DMSO, and infected C2C12 cells with 0.1% DMSO and 50 µM benznidazole were prepared in each plate for data normalization. […] Hit selection cutoffs for the primary screen were set at 70% antiparasitic activity (70% parasite reduction compared to untreated controls) and 50% host cell viability at 10 µM compound compared to untreated controls (represents approximately three standard deviations from the average of the untreated controls).

[2] = intracellular amastigotes in C2C12, 72 h, 10-point 3-fold dose response in duplicate, +/- SE
[3] = C2C12 mouse myoblasts co-cultured with CA-I/72 T. cruzi

Structure (SMILES)	Selectivity Index (SI) (CA-I/72 T. cruzi)	EC50 (CA-I/72 T. cruzi; C2C12, 72 h)	CC50 at 72 h [1]	EC50 (CA-I/72 T. cruzi; [2])	CC50 at 72 h [1, 3]
COc1cc2c3c(n(CCCNCCO)c(=O)c2cc1OC)-c1cc2c(cc1C3=O)OCO2 [NSC-706744]	214	0.44 nM	94 nM		
Cc1cccc2nc3cccc(C(=O)NCCNCCNCCNC(=O)c4cccc5nc6cccc(C)c6nc45)c3nc12 [XR 5944]	13			3.5 nM	46 nM
C=CC(=O)N1CC[C@@H](Oc2nc(Nc3ccc(N4CCC(N5CCN(C)CC5)CC4)cc3)c(C(N)=O)nc2CC)C1 [ASP-8273, naquotinib]	191			2.7 nM	515 nM
O=P(O)(O)C(NC1CCCCCC1)P(=O)(O)O [Incadronate Disodium, incadronate disodium]	>20		> 10000 nM	480 nM	
COc1ccccc1N1CCN(CCCCn2c(=O)sc3cc(CCN4CCC(C(=O)c5ccc(F)cc5)CC4)ccc32)CC1 [3-[4-[4-(2-Methoxyphenyl)piperazine-1-yl]butyl]-6-[2-[4-(4-fluorobenzoyl)piperidine-1-yl]ethyl]benzothiazole-2(3H)-one]	145			22 nM	3190 nM
N#Cc1ccc(Cn2cncc2CN2CCN(c3cccc(Cl)c3)C(=O)C2)cc1Oc1ccccc1 [Prenyl-IN-1]	10			18 nM	182 nM
C=C(NNC(=S)NNC(=S)Nc1ccccc1Cl)c1ccccn1 [348U87, 2-acetylpyridine 5-[(2-chloroanilino)-thiocarbonyl]-thiocarbonohydrazone]	1294			0.63 nM	815 nM

Source: paper PMC7232187, “High-Throughput Screening of the ReFRAME Library Identifies Potential Drug Repurposing Candidates for Trypanosoma cruzi” (Microorganisms, 2020)
